Experimental data reported in article PMC10487708, “Chlorin E6-Curcumin-Mediated Photodynamic Therapy Promotes an Anti-Photoaging Effect in UVB-Irradiated Fibroblasts” (International Journal of Molecular Sciences, 2023).
Read-outs that look alike come from different tables or passages of the source.

Key:
Hs68 cells = assay: MTT cell viability of Hs68 cells with or without LED light; assay type: cell-based, human; settings: for IC50: Homo sapiens, light or radiation study, Hs68 cells; for cytotoxicity for Hs68 cells: dark, up to 1000 nM
Procedure: Data were represented as mean ± SD from at least three independent experiments and analyzed by one-way ANOVA with Tukey’s post hoc test, * p < 0.01, compared with vehicle-treated control.
Hs68 and BALB/c 3T3 cell viability was measured using a 3-[4,5-dimethylthylthiazol-2-yl]-2,5 diphenyl tetrazolium bromide (MTT) assay. The cells were cultured in 24-well plates at a density of 3 × 10^4 cells per well or BALB/c 3T3 cells at a density of 1 × 10^4 cells per well. […] The Hs68 cells were then exposed to LED light (660 nm; 89 W/m^2; 20 J/cm^2) for 37 min 27 s and incubated for 3 h. […] The cells were washed and treated with MTT, after which the plates were incubated at 37 °C in the dark for 2 h. After the formation of formazan, 100 µL of DMSO was added, and the absorbance was measured at 570 nm using a microtiter plate reader (Thermo-scientific, Skanlt software 5.0, Waltham, MA, USA)

[1] = ORAC (oxygen radical absorbance capacity) assay; assay type: biochemical; settings: Trolox equivalent
Procedure: The ORAC assay is based on the scavenging of peroxyl radicals generated by 2,2′-azobis(2-methylpropioamidine) dihydrochloride (AAPH), which prevents the degradation of the fluorescein probe. The ORAC values were calculated as the area under the curve (AUC) and expressed as µM of Trolox equivalent (TE).

MMP-2 = assay: Gelatin zymography of MMP-2 in UVB-exposed Hs68 cells; assay type: cell-based, human; settings: UVB 200 mJ/cm^2, LED 20 J/cm^2, Hs68
Description: Since MMP-2 is a […] that plays an important role in photoaging, we examined the effect of Ce6-curcumin derivatives and LED treatment on the enzyme activities of UV-induced MMP-2 by gelatin zymography. On gelatin zymography, UVB irradiation led to the activation of MMP-2 in Hs68 cells, and this increase was inhibited by Ce6-curcumin derivatives along with LED treatments. On increasing the dose of the Ce6-curcumin derivatives, the MMP-2 was decreased (Figure 7A–C).
Data are expressed as mean ± SD from at least three independent experiments and were analyzed by one-way ANOVA with Tukey’s post hoc test, * p < 0.01 compared with control. ^# p < 0.05 compared with the UVB and LED-treated groups.
MMP-2 activity in cell culture medium was evaluated by gelatin zymography assay as described. After UVB (200 mJ/cm^2) irradiation, Hs68 cells were cultured for 24 h. Ce6-curcumin derivatives were diluted into a medium containing 1% FBS and cultured for 30 min. After 30 min, the LED was irradiated with 20 J/cm^2, cultured for 3 h, washed with 1× PBS, and 300 μL of FBS-free medium was added and cultured for 44 h. […] The activity of MMPs was measured by quantifying the transparent band by proteolytic activity after staining with Coomassie Brilliant Blue staining solution and further distaining with water, methanol, and acetic acid (50:40:10).

COX-2, TNF-α, iNOS = assay: Western blot of COX-2, TNF-α and iNOS in UVB-induced 3T3 fibroblasts; assay type: cell-based, mouse; settings: for UVB-upregulated COX-2 and TNF-α protein levels: fibroblast cells
Description: We further investigated the expressions of COX-2, TNF-α, and MMP-1 to ascertain the effect of UVB on the expressions of NF-κB and AP-1-dependent genes. These genes have an NF-κB and AP-1 functional binding site in their promoter regions and are linked to inflammation.
Figure 10 Effect of Ce6-curcumin derivatives-PDT on UVB-induced COX-2 and iNOS expressions. […] Representative bars are expressed as mean only.
(§1) The cells were lysed with RIPA lysis buffer containing protease inhibitor cocktails (Gen-DEPOT, Katy, TX, USA). Cell lysates were vortexed and centrifuged at 13,000 rpm for 15 min at 4 °C. Protein concentration was determined using the Bradford protein assay kit, and the same amount of protein was separated by SDS-PAGE gel. Then, proteins were transferred to a polyvinylidene fluoride (PVDF) membrane. Further, the membranes were blocked with a blocking solution containing 5% skim milk in Tris-buffered saline containing Tween 20 (TBST) for 1 h and incubated overnight with the primary antibody diluted in 5% skim milk in TBST at 4 °C. Then, the membrane was rinsed with TBST for 30 min and incubated with horseradish peroxidase-conjugated secondary antibodies in a blocking solution for 1 h. All bands were visualized by using an enhanced chemiluminescence (ECL) kit (Pierce, Rockford, IL, USA) under a luminescent image analyzer (Amersham, GE Healthcare, Chicago, IL, USA). The primary antibodies against MMP-1 were obtained from Thermo Fischer Scientific Inc. (NYSE: TMO). Antibodies directed against p-p65, p65, p-p38, p38, p-ERK, ERK, p-c-JUN, and c-JUN were purchased from Cell Signaling Technology Inc. (Beverley, MA, USA). COX-2 and β-Actin antibodies were from Santa Cruz Biotechnology (Santa Cruz, CA, USA), while TNF-α antibodies were procured from Novus Biologicals, Inc. (Centennial, CO, USA).

[2] = test system: p-ERK, p-p38, JNK MAPK, p-NF-κB p65, p-c-JUN; assay: Western blot of MAPK, NF-κB and c-JUN signaling in UVB-induced 3T3 fibroblasts; assay type: cell-based, mouse; settings: 3T3 cells; for phosphorylation level of JNK MAPK / phosphorylation levels of ERK and p38 MAPKs: PDT after UVB treatment
Description: One of the major factors of UVB-induced skin aging is inflammation-mediated skin aging. In UVB-induced skin photoaging, increased intracellular ROS can promote MMP production by activating the MAPK, AP-1, and NF-κB pathways. […] Ce6-diPEG-curcumin-PDT and Ce6-propane-curcumin-PDT lowered the phosphorylation levels of ERK and p38 MAPKs but not those of JNK MAPK.
Figure 9 Effect of Ce6-curcumin derivatives-PDT on MAPK, NF-κB and c-JUN signaling proteins. Protein expressions of p-p38, p-38, p-ERK, ERK, p-c-JUN, c-JUN, p-p65 and p65 in the UVB-induced murine 3T3 fibroblast cell line after Ce6-diPEG-curcumin (150 and 200 μΜ) and Ce6-propane-curcumin (75 and 100 μΜ)-PDT treatment. Representative bars are expressed as mean only.
as §1

[3] = LED 660 nm 20 J/cm^2, MTT, read-out: Phototoxicity (IC50)
[4] = without LED irradiation, MTT, read-out: Dark Toxicity (IC50)

Compound | IC50 (Hs68 cells; [3]) | IC50 (Hs68 cells; [4]) | cytotoxicity for Hs68 cells (Hs68 cells) | phototoxicity toward human dermal fibroblasts, Hs68 (Hs68 cells; with PDT, up to a dose of 1000 nM) | ORAC LED Condition (TE, μM) ([1]; LED 20 J/cm^2, 1 μM compound) | ORAC LED Condition (TE, μM) ([1]; LED 20 J/cm^2, 10 μM compound) | ORAC Dark Condition (TE, μM) ([1]; 1 μM compound) | ORAC Dark Condition (TE, μM) ([1]; 10 μM compound) | UVB-induced MMP-2 expression (gelatin zymography) (MMP-2; 100 nM) | UVB-upregulated COX-2 and TNF-α protein levels (COX-2, TNF-α, iNOS; 75 and 100 μΜ) | UVB-induced increases in p-NF-κB p65 and p-c-JUN ([2]; 75 and 100 μM followed by laser irradiation) | phosphorylation level of JNK MAPK [2] | phosphorylation levels of ERK and p38 MAPKs [2] | UVB-induced MMP-2 expression (gelatin zymography) (MMP-2; 200 nM) | expression levels of iNOS and COX-2 (COX-2, TNF-α, iNOS; 200 nM, PDT, UVB-induced 3T3) | UVB-upregulated COX-2 and TNF-α protein levels (COX-2, TNF-α, iNOS; 150 and 200 μΜ) | UVB-induced increases in p-NF-κB p65 and p-c-JUN ([2]; 150 and 200 μM followed by laser irradiation)
C=Cc1c(C)c2cc3nc(c(CC(=O)OC)c4[nH]c(cc5nc(cc1[nH]2)C(C)=C5CC)c(C)c4C(=O)NCCCNC(=O)CCCC(=O)Oc1ccc(/C=C/C(=O)CC(=O)/C=C/c2ccc(O)c(OC)c2)cc1OC)C(CCC(=O)OC)C3C (centres unmarked) [Ce6-propane-curcumin] | ≥ 1000 nM | ≥ 1000 nM | almost no cytotoxicity | no phototoxicity | 2.78 µM | 30.66 µM | 20.11 µM | 26.83 µM | significant reductions | downregulated these increases | greatly reversed this trend | not | lowered | – | – | – | –
C=Cc1c(C)c2cc3nc(c(CC(=O)OC)c4[nH]c(cc5nc(cc1[nH]2)C(C)=C5CC)c(C)c4C(=O)NCCCOCCOCCOCCCNC(=O)CCCC(=O)Oc1ccc(/C=C/C(=O)CC(=O)/C=C/c2ccc(O)c(OC)c2)cc1OC)C(CCC(=O)OC)C3C (centres unmarked) [Ce6-diPEG-curcumin] | 693 nM | ≥ 1000 nM | almost no cytotoxicity | – | 0.85 µM | 27.98 µM | 20.85 µM | 30.32 µM | – | – | – | not | lowered | highest attenuation of MMP-2 expression | below those seen in the normal control | downregulated these increases | greatly reversed this trend
